Results on 7 compounds are retold here after patent publication US20040018259A1, “Use of at least one extract of a plant of the genus lannea in a cosmetic or dermopharmaceutical composition” (priority 1999, published 2004).

For assay [1], the target named is T1, elastase of the abdominal salivary gland (serine protease) (Sus scrofa, UniProt P00772). In words: In tubo antielastase test, synthetic chromogenic substrate. Type of assay: biochemical. On the procedure: (§1) The in tubo tests are carried out with an elastase of the abdominal salivary gland (serine protease) using two types of substrate: a synthetic color-forming (chromogenic) substrate and a natural substrate consisting of elastin connected with Congo red.
T1 sequence (P00772 27-266): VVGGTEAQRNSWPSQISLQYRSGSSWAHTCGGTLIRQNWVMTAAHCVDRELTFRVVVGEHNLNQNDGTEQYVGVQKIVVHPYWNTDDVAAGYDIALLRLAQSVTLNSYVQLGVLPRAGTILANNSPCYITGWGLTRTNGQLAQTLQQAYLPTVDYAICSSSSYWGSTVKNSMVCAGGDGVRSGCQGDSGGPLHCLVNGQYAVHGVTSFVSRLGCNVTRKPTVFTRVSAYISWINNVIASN
(§2) Incubation lasts 30 minutes at room temperature and coloration is measured at 410 nm and 520 nm.
(§3) The inhibition test standard tested for comparison is 1 antitrypsin.

Assay [2] has as its target T1, elastase of the abdominal salivary gland (serine protease). The assay can be described thus: In tubo antielastase test, elastin connected with Congo red. Type of assay: biochemical. The procedure:
as §1, §2, §3

Assay [3] relates to singlet oxygen on type I collagen. The assay can be described thus: Anti-singlet oxygen effect on type I collagen (viscosity, riboflavin + UV-A). From the text:
Collagen is a dermal glycoprotein which is very sensitive to the activity of the reactive form of oxygen (or FRO). It was shown that singlet oxygen (O2^1) produces troublesome crosslinkings among the proteins.
The principle of this test is based on measurement of the viscosity of an aqueous solution of type I collagen in the presence of a photochemical O2^1-evolving system.
O2^1, which is produced by riboflavin in the presence of UV-A, causes the collagen to gel in the presence of glucose which is reflected in an increase in viscosity. This effect is inhibited by the molecules which expose O2^1, such as thiourea or aminoguanidine for example.
Viscosity is evaluated by measurement of the throughflow time through the capillary of a “Cannon Fenske” viscosimeter.

In a further assay the test system is B16 melanocytes. The assay can be described thus: In vitro melanogenesis inhibition test on B16 melanocytes. In kind it is cell-based. The following applies: 0.3% dose. The procedure: In Vitro Melanogenesis Inhibition Test on B16 Melanocytes inoculation of the melanocytes into a growth substrate, incubation for three days at 37° C., CO2=5%, introduction of the Lannea coromandelica extracts into a medium which activates melanogenesis, […]
spectrophotometric dosing of the proteins (co-called Bradford method) and the melanin (DO at 475 nm) into the homogenized melanocytes, calculation of an activity index which corresponds to the ratio (protein level/melanin level) for an optimal dose of extract.
It follows that the higher the index (>1), the greater the ability to inhibit melanogensis.

The nature of assay [4]: Anti-anion superoxide test (hypoxanthine/xanthine oxidase) with luminol. Type of assay: biochemical. The following applies: for percentage inhibition, test with luminol: average of 2 tests. From the text:
(§4) *Anti-Anion Superoxide Effect (O2.^−) O2.^− is produced during the oxidizing stress through the introduction of an enzyme, xanthine oxidase (XOD), which degrades the excess hypoxanthine (HX) during an interruption in or disruption of the energy metabolism in living tissue. O2.^− is toxic, particularly because of its ability to form hydrogen peroxide (H2O2)—which in turn forms a source of HO^• through the Fenton reaction—either spontaneously or in the presence of Superoxid-Dismutase (SOD). The biochemical tests are carried out with HX in the presence of XOD and the O2.^− are exposed by luminol or a mixture of luminol and peroxidase, which exposes O2.^− and H2O2, or by a tetrazolium salt (NBT) which forms a red compound evaluated at 540 nm.

The nature of assay [5]: Anti-HO° test with deoxyribose (Fenton reaction) without EDTA. To be noted: for percentage inhibition of the hydroxylation rate: average of 2 tests. The procedure: (§5) Anti-HO°-Test with Deoxyribose (Fenton Reaction) These tests evaluate the ability of an active substance to eliminate (“bait”) HO° produced by the Fenton reaction (H2O2 in the presence of iron). HO° can be exposed by deoxyribose. Deoxyribose is an essential compound of ADN which is oxidized and then fragmented by HO°. The oxidation product of deoxyribose is exposed by condensation with thiobarbituric acid (measurement of optical density at 532 nm). This test is carried out with and without EDTA in order to determine the ability of the extract to form active complex compounds with iron (“[…] effect”).

A short description of assay [6]: Anti-DPPH° test (anti-radical effect). The following applies: for level of leuco compound formed (in % in relation to the control): average of 2 tests. From the text:
a) DPPH° Test DPPH (diphenyl picryl hydrazyl) is a stable, free, violet-colored radical which is modified in its leuco compound by the substances that trap the free radicals (=scavenger or bait effect). The result is expressed in leuco compound levels which are formed in the presence of the active agent (in % in relation to the control with no active principle).

Assay [7] can be described thus: Anti-anion superoxide test (hypoxanthine/xanthine oxidase) with NBT. Type of assay: biochemical. To be noted: for percentage inhibition, test with NBT: average of 2 tests.
Description: as §4

Assay [8] is described as follows: Anti-HO° test with deoxyribose (Fenton reaction) with EDTA. To be noted: for percentage inhibition of the hydroxylation rate: average of 2 tests. The procedure: as §5
Assay [9] is described as follows: Anti-anion superoxide test (hypoxanthine/xanthine oxidase) with luminol + microperoxidase. In kind it is biochemical. To be noted: for percentage inhibition, test with luminol + microperoxidase: average of 2 tests.
Description: as §4

The subject of another assay is tyrosinase. In words: In tubo tyrosinase inhibition test (L-DOPA, dopachromium DO at 475 nm). To be noted: extract concentration producing 50% inhibition of the enzyme activity. Type of assay: biochemical. From the text:
In Tubo Tyrosinase Inhibition Test mixing of the L-DOPA with tyrosinase and the Lannea coromandelica extracts to be tested, recording of the DO at 475 nm of the dopachromium, calculation of the kinetics, then the CI50 (extract concentration which produces a 50% inhibition of the enzyme activity).

The subject of assay [10] is clostridium hystoliticum collagenase. In words: In tubo anticollagenase test (FALGPA substrate). Type of assay: biochemical. On the procedure:
b) In Tubo Anticollagenase Test
The tests are carried out with a clostridium hystoliticum collagenase and a synthetic chromogenic substrate: FALGPA. Incubation lasts 3O minutes at room temperature and optical density is measured at 324 nm. The inhibition test standard tested for comparison is cysteine.
The results are set out in Table X below which emphasizes the anticollagenase activity of the Lannea coromandelica extracts (results in percentage inhibition).

For the next assay, the system named is human fibroblasts. The assay can be described thus: Anti-UVA cytophotoprotection test on human fibroblasts. In kind it is cell-based. To be noted: UV-A 15 J/cm^2. From the text:
d) Anti-UVA-Cytophotoprotection Test on Human Fibroblasts
This in vitro test evaluates the ability of Lannea coromandelica extracts according to the invention to afford human fibroblasts cytophotoprotection against UV-A.
The UV-As are selected as a study model because they penetrate into the inner skin and introduce an oxidizing stress into the skin which is reflected in particular in a lipoperoxidation of the cytoplasmic membrane. The lipoperoxides formed split up into malonaldialdehydes (MDAs) which are responsible for the crosslinking of numerous biological molecules, such as proteins for example (enzyme inhibition), and nuclein bases (mutagenesis).
Fibroblasts are inoculated into a nutrient medium defined with calf foetus serum. The Lannea coromandelica extract was added 2 to 3 days after inoculation. After incubation for 2 to 3 days at 37° C./CO2=5%, the nutrient medium is replaced by a salt solution and the fibroblasts are exposed to a dose of UV-A (15 J/cm^2).
After the exposure, the MDA level in the salt solution floating on the surface is determined and the protein level in the fibroblasts is measured. The MDA level is determined by reaction to thiobarbituric acid while the protein levels are determined by the Bradford method.

With “1α antitrypsin: inhibition test standard tested for comparison in the antielastase test”, the “Cl50 antielastase, synthetic substrate” value in assay [1] was “NB: Cl50 in % by wt./vol. for 1α antitrypsin = 0.04%”. Moreover, the “Cl50 antielastase, elastin connected with Congo red” value in [2] was “NB: Cl50 in % by wt./vol. for 1α antitrypsin = 0.04%”.
Turning to `N=C(N)NN` [Aminoguanidine, aminoguanidine], the “Cl50 photoprotection of type I collagen” value in assay [3] is 0.004 % (wt./vol.). Further, the “photoprotective effect on type I collagen, percentage inhibition” value was 57% in [3] (dose 0.005% (wt./vol.)) and 75% in assay [3] (dose 0.015% (wt./vol.)).
For `OC[C@H]1O[C@@H](Oc2ccc(O)cc2)[C@H](O)[C@@H](O)[C@@H]1O` [Arbutin], the “I = activity index on B16 melanocytes (protein level/melanin level)” value in the assay with B16 melanocytes is “I = 3.14 (for the 0.3% dose)”.
As to `O=C1O[C@H]([C@@H](O)CO)C(O)=C1O` [Ascorbic acid], the “Cl50 test with luminol” value in assay [4] is reported as 0.0006 % (wt./vol.). Moreover, the “percentage inhibition, test with luminol” value in assay [4] (dose 0.0001% (wt./vol.)) amounted to 5%; in assay [4] (dose 0.001% (wt./vol.)) it was 92%; in [4] (dose 0.01% (wt./vol.)), 100%. Moreover, the “Cl50 Fenton reaction without EDTA” value in assay [5] is on record as 0.9 % (wt./vol.). In addition, the “percentage inhibition of the hydroxylation rate” value in [5] (dose 0.01% (wt./vol.)) was 5%; in assay [5] (dose 0.03% (wt./vol.)), 75%; in [5] (dose 0.1% (wt./vol.)), 2%; in [5] (dose 1% (wt./vol.)), 56%; in assay [8] (dose 0.1% (wt./vol.)) it was 45%; in assay [8] (dose 1% (wt./vol.)), 73%. Moreover, the “Cl50 anti-DPPH° test” value in assay [6] is on record as 0.0013 % (wt./vol.). Moreover, the “level of leuco compound formed (in % in relation to the control)” value is given as 49% in assay [6] (dose 0.001% (wt./vol.)) and 75% in assay [6] (dose 0.01% (wt./vol.)). Further, the “Cl50 test with NBT” value in assay [7] is 0.5909 % (wt./vol.). Further, the “percentage inhibition, test with NBT” value in assay [7] (dose 0.01% (wt./vol.)) came to 15%; in assay [7] (dose 0.1% (wt./vol.)) it was 32%; in [7] (dose I % (wt./vol.)) it was 65%. The “Cl50 Fenton reaction with EDTA” value in assay [8] was 0.26 % (wt./vol.). Further, the “Cl50 test with luminol + microperoxidase” value in [9] is 0.0058 % (wt./vol.). Further, the “percentage inhibition, test with luminol + microperoxidase” value is reported as 0% in assay [9] (dose 0.001% (wt./vol.)) and 94% in assay [9] (dose 0.01% (wt./vol.)).
With `Oc1ccc(O)cc1` [Hydroquinone], the “Cl50 in tubo tyrosinase inhibition” value in the assay with tyrosinase is recorded as “Cl50 = 0.025% by wt./vol”.
For `N[C@@H](CS)C(=O)O` [cysteine], the Cl50 anticollagenase result in assay [10] is listed as “NB: Cl50 in % by wt./vol. of cysteine = 2.4%”.
For Vitamin E, the “MDA level in % in relation to the irradiated control” value in the assay with human fibroblasts (0.0003%) is 21%; in the assay with human fibroblasts (0.001%), 8%. Further, the entries for the “Proteins in % in relation to the non-irradiated control” value with human fibroblasts (0.0003%) and in the assay with human fibroblasts (0.001%) were 97% and 98%, respectively.
